Key:
Conditions in all cases: exposure time: 90 min
[1] = tested on: 1535 (donor line of iPSC-derived cardiomyocytes); assay: POD (EC05) for increase in beat frequency (positive chronotrope) vs vehicle; higher = less potent (higher point of departure)
In short: (§1)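 A FLIPR Tetra recorded Ca2+ flux in dye-loaded human iPSC-derived cardiomyocytes from 16 donors before and after 90 min at 37 °C with 0.1, 1, 10 and 100 µM (final concentrations, 0.5% DMSO). Vehicle-normalised beat frequency, decay-to-rise ratio or peak frequency were fitted with hierarchical Bayesian Hill models to give donor-specific points of departure. The threshold was a 5% change, or for peak frequency a 95% loss.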

[2] = tested on: 1368 (donor line of iPSC-derived cardiomyocytes); assay: as above
In short: as §1

[3] = tested on: 1392 (donor line of iPSC-derived cardiomyocytes); assay: as above
In short: as §1

[4] = tested on: 30145 (donor line of iPSC-derived cardiomyocytes); assay: as above
In short: as §1

[5] = tested on: 1535; assay: POD (EC05) for increase in Ca2+ transient decay-to-rise ratio (QT prolongation) vs vehicle; higher = less potent (higher point of departure)
Method: (§2)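 Human iPSC-derived cardiomyocytes from 16 donors were exposed for 90 min at 37 °C to each PFAS at 0.1, 1, 10 and 100 µM in 0.5% DMSO, 384-well plates. Kinetic Ca2+ flux (FLIPR) and Hoechst nuclei counts were normalised to vehicle wells and fitted with a hierarchical Bayesian Hill model to give donor-specific PODs: EC05 for beat-rate increase or decrease and for decay-to-rise ratio increase (QT proxy), EC95 for peak-frequency loss (asystole), EC10 for total cell number loss. 0.03 µM is the lower bound.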

[6] = tested on: 1309 (donor line of iPSC-derived cardiomyocytes); assay: as above
Method: as §2

[7] = tested on: 20084 (donor line of iPSC-derived cardiomyocytes); assay: as above
Method: as §2

[8] = tested on: 1368; assay: as above
Method: as §2

[9] = tested on: 1392; assay: as above
Method: as §2

[10] = tested on: 1516 (donor line of iPSC-derived cardiomyocytes); assay: as above
Method: as §2

[11] = tested on: 30145; assay: as above
Method: as §2

[12] = tested on: 20032 (donor line of iPSC-derived cardiomyocytes); assay: as above
Method: as §2

[13] = tested on: 11235 (donor line of iPSC-derived cardiomyocytes); assay: as above
Method: as §2

[14] = tested on: 1434 (donor line of iPSC-derived cardiomyocytes); assay: as above
Method: as §2

[15] = tested on: 30171 (donor line of iPSC-derived cardiomyocytes); assay: as above
Method: as §2

[16] = tested on: 1118 (donor line of iPSC-derived cardiomyocytes); assay: as above
Method: as §2

[17] = tested on: 1083 (donor line of iPSC-derived cardiomyocytes); assay: as above
Method: as §2

[18] = tested on: 1518 (donor line of iPSC-derived cardiomyocytes); assay: as above
Method: as §2

[19] = tested on: 1565 (donor line of iPSC-derived cardiomyocytes); assay: as above
Method: as §2

Compound	POD vs vehicle [1] [µM]	POD vs vehicle [2] [µM]	POD vs vehicle [3] [µM]	POD vs vehicle [4] [µM]	POD vs vehicle [5] [µM]	POD vs vehicle [6] [µM]	POD vs vehicle [7] [µM]	POD vs vehicle [8] [µM]	POD vs vehicle [9] [µM]	POD vs vehicle [10] [µM]	POD vs vehicle [11] [µM]	POD vs vehicle [12] [µM]	POD vs vehicle [13] [µM]	POD vs vehicle [14] [µM]	POD vs vehicle [15] [µM]	POD vs vehicle [16] [µM]	POD vs vehicle [17] [µM]	POD vs vehicle [18] [µM]	POD vs vehicle [19] [µM]
OCC(F)(F)C(F)(F)C(F)(F)C(F)F [1H,1H,5H-Perfluoropentanol]	> 100	> 100	> 100	> 100	> 100	> 100	5.77	> 100	> 100	4.56	> 100	> 100	> 100	> 100	> 100	> 100	> 100	2.03	> 100
O=S(=O)(OCC(F)(F)F)C(F)(F)C(F)(F)C(F)(F)C(F)(F)F [2,2,2-Trifluoroethyl_perfluorobutanesulfonate]	> 100	> 100	> 100	> 100	> 100	> 100	> 100	> 100	> 100	–	> 100	> 100	> 100	> 100	> 100	> 100	> 100	–	> 100
OCCC(F)(F)C(F)(F)C(F)(F)C(F)(F)F [4:2 Fluorotelomer alcohol]	> 100	> 100	> 100	–	> 100	> 100	> 100	> 100	> 100	–	> 100	> 100	> 100	> 100	> 100	> 100	> 100	–	> 100
OCC(F)(F)C(F)(F)C(F)(F)C(F)(F)C(F)(F)C(F)(F)F [6:1 Fluorotelomer alcohol]	> 100	> 100	> 100	> 100	> 100	> 100	> 100	> 100	> 100	> 100	> 100	> 100	> 100	> 100	> 100	> 100	> 100	–	> 100
O=C([O-])C(F)(F)C(F)(F)C(F)(F)C(F)(F)C(F)(F)C(F)(F)C(F)(F)F.[NH4+] [Ammonium_perfluorooctanoate]	> 100	> 100	> 100	–	> 100	> 100	> 100	> 100	> 100	> 100	> 100	> 100	> 100	> 100	> 100	> 100	> 100	–	> 100
OCC(F)(F)OC(F)(F)C(F)(F)OC(F)(F)C(F)(F)OC(F)(F)F [Fluorinated_triethylene_glycol_monomethyl_ether]	> 100	> 100	> 100	–	> 100	> 100	> 100	> 100	> 100	> 100	> 100	> 100	> 100	> 100	> 100	> 100	> 100	> 100	> 100
NC(=O)C(F)(F)C(F)(F)C(F)(F)F [Heptafluorobutyramide]	> 100	> 100	> 100	–	> 100	> 100	> 100	> 100	> 100	–	> 100	–	> 100	> 100	> 100	> 100	> 100	–	> 100
O=C(O)C(F)(F)OC(F)(F)C(F)(F)OC(F)(F)C(F)(F)OC(F)(F)C(F)(F)C(F)(F)C(F)(F)F [Perfluoro-3,6,9-trioxatridecanoic_acid]	> 100	> 100	> 100	> 100	> 100	> 100	> 100	> 100	> 100	–	> 100	> 100	> 100	> 100	> 100	> 100	> 100	> 100	> 100
O=C(O)C(F)(F)C(F)(F)C(F)(F)C(F)(F)C(F)(F)C(F)(F)F [Perfluoroheptanoic_acid]	> 100	> 100	> 100	> 100	> 100	> 100	> 100	> 100	> 100	–	> 100	> 100	> 100	> 100	> 100	> 100	> 100	–	> 100
NC(=O)C(F)(F)C(F)(F)C(F)(F)C(F)(F)C(F)(F)C(F)(F)C(F)(F)F [Perfluorooctanamide]	> 100	> 100	> 100	> 100	> 100	> 100	–	> 100	> 100	> 100	> 100	–	> 100	> 100	> 100	> 100	> 100	–	> 100
N=C(N)C(F)(F)C(F)(F)C(F)(F)C(F)(F)C(F)(F)C(F)(F)C(F)(F)F [Perfluorooctanamidine]	> 100	> 100	> 100	> 100	> 100	> 100	0.145	> 100	> 100	> 100	> 100	–	> 100	> 100	> 100	> 100	> 100	–	> 100

— the supplement of paper PMC11368000
